Where two headings read alike, the source gives them in different places.
Experiments:
[1] = target: N-methyl-D-aspartate (NMDA) receptor site; assay: Glutamate (NMDA) binding assay, L-[3H]glutamate, synaptic plasma membranes; details: L-[3H]glutamate 12.5 nM, pH 7.4, 0-4° C.; read-out: Ki apparent, NMDA
Method: The purpose of this assay is to determine the binding affinity of a compound of Formula I for the N-methyl-D-aspartate (NMDA) receptor site. This procedure was carried out as follows:
Synaptic plasma membranes (SPM) were prepared as previously described [Monahan, J. B. and Michel, J., "Identification and Characterization of an N-methyl-D-aspartate-specific L-[^3 H]glutamate Recognition Site in Synaptic Plasma Membranes, J. Neurochem., 48, 1699-1708 (1987)]. The SPM were stored at a concentration of 10-15 mg/ml in 0.32 M sucrose, 0.5 mM EDTA, 1 mM MgSO4, 5 mM Tris/SO4, pH 7.4, under liquid nitrogen. The identity and purity of the subcellular fractions were confirmed by both electron microscopy and marker enzymes. Protein concentrations were determined by using a modification of the method of Lowry [Ohnishi, S. T. and Barr, J. K., "A Simplified Method of Quantitating Proteins Using the Biuret and Phenol Reagents", Anal. Biochem., 86, 193-197 (1978)]. The SPM were thawed at room temperature, diluted twenty-fold with 50 mM Tris/acetate, pH 7.4, incubated at 37° C. for 30 minutes, and centrifuged at 100,000 g for 15 minutes. The dilution, incubation, and centrifugation was repeated a total of three times. This general method involved adding 12.5 nM of the L-[^3 H]glutamate radioligand to the appropriate concentration of the test compound and initiating the assay by the addition of ice cold SPM (0.2-0.45 mg). The binding assays were performed in 1.5 ml centrifuge tubes with the total volume adjusted to 1.0 ml. Additions of test compounds were made in 50 mM Tris/acetate, pH 7.4 and incubations were carried out at 0°-4° C. The incubation time for the NMDA binding assay was 10 minutes. To terminate the incubation, the samples were centrifuged for 15 minutes at 12,000 g and 4° C. in a Beckman Microfuge 12. The supernatant was aspirated and the pelleted membranes dissolved in Beckman Ready-Protein scintillation cocktail and the samples counted on a Beckman LS 5800 or 3801 liquid scintillation counter with automatic corrections for quenching and counting efficiency. Nonspecific binding was defined as the residual binding in the presence of 0.5 mM NMDA and was typically 15-25% of the total binding in the NMDA binding assay. Radioligand binding to the SPM was analyzed using Scatchard and Hill transformations and the Ki values of the compounds determined using logit-log transformations. Calculations and regression analysis were performed using templates developed for Lotus 1, 2, 3 as previously described [Pullan, L. M. "Automated Radioligand Receptor Binding Analysis with Templates for Lotus", Computer Appln. Biosci., 3 131 (1987)]. Binding results are reported in Table II for example compounds of the invention.

[2] = target: T1, strychnineinsensitive glycine recognition site (NMDA receptor-ion channel complex) (Rattus norvegicus, UniProt P35439); assay: Glycine binding assay, [3H]glycine, synaptic plasma membranes
T1 construct: Synaptic plasma membranes (SPM) were prepared from rat forebrain; from tissue; host or cells: rat forebrain synaptic plasma membranes
Method: Synaptic plasma membranes (SPM) were prepared from rat forebrain and stored as previously described [J. B. Monahan and J. Michel, J. Neurochem, 48, 1699-1708 (1987)]. Frozen membranes were thawed and diluted 1:20 with 0.04% triton X-100 in 50 mM tris/acetate (pH 7.4). Following incubation at 37° C. for 30 min., the SPM were collected by centrifugation at 95,000 X g for 15 min. The pellet was resuspended in 50 mM tris/acetate (pH 7.4, triton-free) and hand-homogenized five times. The membranes were again centrifuged as above. The pellet was washed two additional times with 50 mM tris/acetate (without homogenization) and centrifuged. The final pellet was resuspended with homogenization in 50 mM tris/acetate.
In the general receptor binding assay procedure, 10 nM [^3 H]glycine was added to the appropriate concentration of the test compounds and the assay initiated by the addition of 0.2-0.4 mg of ice cold SPM. The assay, which was done in 1.5 ml centrifuge tubes, was adjusted to a total volume of 1.0 ml with all additions being made in 50 mM tris/ acetate, pH 7.4 at 4° C. After a 10 minute incubation at 2° C., the samples were centrifuged for 15 min. at 12,000 g (4° C.) in a Beckman Microfuge 12. The supernatant was aspirated and the tube tip containing the pelleted membranes cut off and agitated in 0.5 ml of Beckman BTS-450 tissue solubilizer for a minimum of 6 hours at room temperature. Beckman MP scintillation cocktail (5 ml) containing 7 ml/liter acetic acid was then added and the samples counted on a Beckman LS 5800 liquid scintillation counter with automatic corrections for quenching and counting efficiency. […] The binding of [^3 H]glycine to the SPM was analyzed using Scatchard and Hill transformations and the Ki for other compounds was determined using logit-log analysis. Calculations and regression analysis were performed using templates developed for Lotus 123 as previously described [Pullan et al, Id.].

[3] = 10 nM [3H]glycine, pH 7.4, rat forebrain SPM, read-out: Ki apparent, Gly

Row | Ki [1] | Ki [2, 3] | Compound | Ki [2]
1 | > 100 µM | > 100 µM | O=C(O)CCCc1c(C(=O)O)[nH]c2ccccc12 [compound 8, 2-carboxy-3-indolebutanoic acid] | –
2 | – | > 30 µM | CCOC(=O)Cc1c(C=O)[nH]c2cc(Cl)ccc12 [compound 51, ethyl 6-chloro-2-formyl-3-indole acetate] | –
3 | – | > 100 µM | CCOC(=O)Cc1c(C(=O)OCC)[nH]c2cc(Cl)ccc12 [compound 22, ethyl 2-carboethoxy-6-chloro-3-indoleacetate] | –
4 | – | > 20 µM | O=C(O)c1cc2c(C(=O)O)cccc2[nH]1 [compound 26, 4-carboxyindole-2-carboxylic acid] | –
5 | > 100 µM | > 100 µM | O=C(O)CCc1c(C(=O)O)[nH]c2ccccc12 [compound 7, 2-carboxy-3-indolepropanoic acid] | –
6 | – | > 30 µM | O=C(O)Cc1c(CO)[nH]c2cc(Cl)ccc12 | –
7 | – | > 10 µM | O=C(O)c1[nH]c2ccccc2c1CCO [compound 20, 3-(2-hydroxyethyl)indole-2-carboxylic acid] | –
8 | – | 7 µM | CCCOC(=O)Cc1c(C(=O)O)[nH]c2cc(Cl)ccc12 [compound 42, propyl 2-carboxy-6-chloro-3-indoleacetate] | –
9 | – | > 10 µM | Cc1cc2c(CC(=O)O)c(C(=O)O)[nH]c2cc1Cl [compound 21, 2-carboxy-6-chloro-5-methylindole-3-acetic acid] | –
10 | – | 0.47 µM | O=C(Cc1c(C(=O)O)[nH]c2cc(Cl)ccc12)NCCc1ccccc1 [compound 45, 2-carboxy-6-chloro-3-indoleacetic acid 3-phenylethylamide] | –
11 | > 100 µM | 11.7 µM | O=C(O)Cc1c(C(=O)O)[nH]c2ccc(Cl)cc12 [Compound No. 3, 2-carboxy-5-chloro-3-indoleacetic acid] | –
12 | > 100 µM | > 100 µM | Cn1c(C(=O)O)c(CC(=O)O)c2ccccc21 [compound 2, 2-carboxy-1-methyl-3-indoleacetic acid] | –
13 | > 100 µM | > 100 µM | COc1ccc2[nH]c(C(=O)O)cc2c1 [compound 18, 5-methoxyindole-2-carboxylic acid] | –
14 | > 100 µM | > 100 µM | O=C(O)c1[nH]c2ccccc2c1CO [Compound No. 12, 3-hydroxymethylindole-2-carboxylic acid] | –
15 | – | > 30 µM | CN(C)C(=O)Cc1c(C(=O)O)[nH]c2cc(Cl)ccc12 [compound 36, 2-carboxy-6-chloro-3-indole acetic acid 3-dimethyl amide] | –
16 | – | > 30 µM | CN(C)CCNC(=O)Cc1c(C(=O)NCCN(C)C)[nH]c2cc(Cl)ccc12 [compound 54, 2-carboxy-6-chloro-3-indole acetic acid bis-2-dimethyl aminoethylamide] | –
17 | – | > 30 µM | O=C(O)Cc1c(C(=O)O)[nH]c2c(Cl)cccc12 [compound 29, 2-carboxy-7-chloroindole-3-acetic acid] | –
18 | – | > 20 µM | O=C(O)c1cc2c(O)cccc2[nH]1 [compound 28, 4-hydroxyindole-2-carboxylic acid] | –
19 | > 100 µM | 17.5 µM | O=C(O)Cc1c(C(=O)O)[nH]c2ccc(F)cc12 [compound 5, 2-carboxy-5-fluoro-3-indoleacetic acid] | –

Row | Ki [1] | Ki [2, 3] | Compound | Ki [2]
20 | – | > 30 µM | CN(C)CCCNC(=O)Cc1c(C(=O)O)[nH]c2cc(Cl)ccc12 [compound 40, 2-carboxy-6-chloro-3-indoleacetic acid 3-(3-dimethylaminopropyl)amide] | –
21 | – | > 30 µM | CCOC(=O)Cc1c(CO)[nH]c2cc(Cl)ccc12 [compound 52, ethyl 6-chloro-2-hydroxymethyl-3-indoleacetate] | –
22 | – | > 30 µM | CCOC(=O)Cc1c(C(=O)OCCCN(C)C)[nH]c2cc(Cl)ccc12 [compound 34, ethyl 2-(3-dimethylaminopropyloxycarbonyl)-6-chloro-3-indole acetate] | –
23 | > 100 µM | 26.2 µM | O=C(O)Cc1c(C(=O)O)[nH]c2ccc(Br)cc12 [compound 4, 5-bromo-2-carboxy-3-indoleacetic acid] | –
24 | – | > 20 µM | O=C(O)c1cc2c(OCc3ccccc3)cccc2[nH]1 [compound 27, 4-benzyloxyindole-2-carboxylic acid] | –
25 | – | > 100 µM | O=C1OCCc2c1[nH]c1ccccc21 [compound 23, 4,9-dihydropyrano[3,4-b]indol-1(3H)-one] | –
26 | – | 11.4 µM | O=C(Cc1c(C(=O)O)[nH]c2cc(Cl)ccc12)NCCO [compound 39, 2-carboxy-6-chloro-3-indoleacetic acid 3-(2-hydroxyethyl)amide] | –
27 | – | > 30 µM | CCOC(=O)c1[nH]c2cc(Cl)ccc2c1CC(N)=O [compound 55, 2-carboethoxy-6-chloro-3-indoleacetamide] | –
28 | > 100 µM | > 100 µM | O=C(O)CCCCc1c(C(=O)O)[nH]c2ccccc12 [compound 9, 2-carboxy-3-indolepentanoic acid] | –
29 | – | > 30 µM | CC(=O)Cc1c(C(=O)O)[nH]c2ccccc12 [compound 25, 3-(2-oxopropyl)indole-2-carboxylic acid] | –
30 | > 100 µM | > 100 µM | CCOC(=O)Cc1c(C(=O)OCC)[nH]c2ccccc12 [compound 19, ethyl 2-carboethoxy-3-indoleacetate] | –
31 | > 100 µM | – | O=Cc1c(C(=O)O)[nH]c2ccccc12 [compound 24, 3-formylindole-2-carboxylic acid] | –
32 | > 100 µM | > 100 µM | Cc1ccc2[nH]c(C(=O)O)cc2c1 [compound 17, 5-methylindole-2-carboxylic acid] | –
33 | > 100 µM | > 100 µM | O=C(O)c1cc2cc(Br)ccc2[nH]1 [compound 16, 5-bromoindole-2-carboxylic acid] | –
34 | > 100 µM | > 100 µM | CCC(C(=O)O)c1c(C(=O)O)[nH]c2ccccc12 (stereo not shown) [compound 10, 2-(2-carboxy-3-indole)butanoic acid] | –
35 | > 100 µM | > 100 µM | O=C(O)c1[nH]c2cc(Cl)ccc2c1O [Compound No. 11, 6-chloro-3-hydroxyindole-2-carboxylic acid] | –
36 | > 100 µM | > 100 µM | O=C(O)c1cc2cc(Cl)ccc2[nH]1 [compound 14, 5-chloroindole-2-carboxylic acid] | –
37 | – | > 10 µM | CCOC(=O)c1[nH]c2cc(Cl)ccc2c1CCCl [compound 47, ethyl 6-chloro-3-(2-chloroethyl)-2-indolecarboxylate] | –

Row | Compound | Ki [1] | Ki [2, 3] | Ki [2]
38 | O=C(O)c1cc2cc(F)ccc2[nH]1 [compound 15, 5-fluoroindole-2-carboxylic acid] | > 100 µM | – | –
39 | O=C(O)c1cc2ccccc2[nH]1 [compound 13, indole-2-carboxylic acid] | > 100 µM | – | > 100 µM

— patent publication US5229413A, “Compositions containing indole-2-carboxylate compounds for treatment of CNS disorders” (G. D. Searle & Co., priority 1992, dated 1993)
